# Reference: ChEMBL document CHEMBL1201862, “PubChem BioAssay data set” (2004)
#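 Cultured in 96-well plates, cells were exposed to test compound for 48 hours across five concentrations. GI50 = concentration required for 50% inhibition of growth.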 Activity calls are given as the source filed them. Rule as the data show it: active = GI50 up to about 1.1 µM and inactive = higher.
# Columns and labels:
# Experiment in all cases: inhibition of tumour cell growth, NCI panel, 48 h
# UO-31 = test system: UO-31
# A498 = test system: A498
# SK-OV-3 = test system: SK-OV-3
# CCRF-CEM = test system: CCRF-CEM
# NCI-H522 = test system: NCI-H522
# NCI-H226 = test system: NCI-H226
# UACC-257 = test system: UACC-257
# SR = test system: SR
# U-251 = test system: U-251
# HL-60 = test system: HL-60
# DMS-114 = test system: DMS-114
# HCT-15 = test system: HCT-15
# K562 = test system: K562
# SF-268 = test system: SF-268
# IGROV-1 = test system: IGROV-1
# TK-10 = test system: TK-10
# DLD-1 = test system: DLD-1
# SK-MEL-5 = test system: SK-MEL-5
# COLO 205 = test system: COLO 205
# 786-0 = test system: 786-0
# UACC-62 = test system: UACC-62
# SK-MEL-2 = test system: SK-MEL-2
# ACHN = test system: ACHN
# SNB-19 = test system: SNB-19
# M14 = test system: M14
# HCT-116 = test system: HCT-116
# LXFL 529 = test system: LXFL 529
# M19-MEL = test system: M19-MEL
# SW-620 = test system: SW-620
# OVCAR-4 = test system: OVCAR-4
# HOP-18 = test system: HOP-18
# SN12C = test system: SN12C
# SF-539 = test system: SF-539
# A549 = test system: A549
# HCC 2998 = test system: HCC 2998
# MOLT-4 = test system: MOLT-4
# SNB-78 = test system: SNB-78
# OVCAR-8 = test system: OVCAR-8
# RPMI-8226 = test system: RPMI-8226
# NCI-H460 = test system: NCI-H460
# SNB-75 = test system: SNB-75
# SK-MEL-28 = test system: SK-MEL-28
# RXF 393 = test system: RXF 393
# KM-20L2 = test system: KM-20L2
# KM12 = test system: KM12
# Malme-3M = test system: Malme-3M
# HOP-62 = test system: HOP-62
# DMS-273 = test system: DMS-273
# CAKI-1 = test system: CAKI-1
# EKVX = test system: EKVX
# SF-295 = test system: SF-295
# NCI-H23 = test system: NCI-H23
# OVCAR-3 = test system: OVCAR-3
# OVCAR-5 = test system: OVCAR-5
# HOP-92 = test system: HOP-92
# HT-29 = test system: HT-29
structure (smiles),measurement,setting,value
CCSC(=O)C1(C)OC2CCCCC2C1=O (stereo not given),GI50,UO-31,> 100 µM (inactive)
same,GI50,A498,> 100 µM (inactive)
same,GI50,SK-OV-3,> 100 µM (inactive)
same,GI50,CCRF-CEM,> 100 µM (inactive)
same,GI50,NCI-H522,> 100 µM (inactive)
same,GI50,NCI-H226,> 100 µM (inactive)
same,GI50,UACC-257,> 100 µM (inactive)
same,GI50,SR,> 100 µM (inactive)
same,GI50,U-251,> 100 µM (inactive)
same,GI50,HL-60,> 100 µM (inactive)
same,GI50,DMS-114,> 100 µM (inactive)
same,GI50,HCT-15,> 100 µM
same,GI50,K562,> 100 µM (inactive)
same,GI50,SF-268,> 100 µM (inactive)
same,GI50,IGROV-1,> 100 µM (inactive)
same,GI50,TK-10,> 100 µM (inactive)
same,GI50,DLD-1,> 100 µM (inactive)
same,GI50,SK-MEL-5,> 100 µM (inactive)
same,GI50,COLO 205,> 100 µM (inactive)
same,GI50,786-0,> 100 µM (inactive)
same,GI50,UACC-62,> 100 µM (inactive)
same,GI50,SK-MEL-2,> 100 µM (inactive)
same,GI50,ACHN,> 100 µM (inactive)
same,GI50,SNB-19,> 100 µM (inactive)
same,GI50,M14,> 100 µM (inactive)
same,GI50,HCT-116,> 100 µM (inactive)
same,GI50,LXFL 529,> 100 µM (inactive)
same,GI50,M19-MEL,> 100 µM (inactive)
same,GI50,SW-620,> 100 µM (inactive)
same,GI50,OVCAR-4,> 100 µM (inactive)
same,GI50,HOP-18,> 100 µM (inactive)
same,GI50,SN12C,> 100 µM (inactive)
same,GI50,SF-539,> 100 µM (inactive)
same,GI50,A549,> 100 µM (inactive)
same,GI50,HCC 2998,> 100 µM (inactive)
same,GI50,MOLT-4,> 100 µM (inactive)
same,GI50,SNB-78,> 100 µM (inactive)
same,GI50,OVCAR-8,> 100 µM (inactive)
same,GI50,RPMI-8226,> 100 µM (inactive)
same,GI50,NCI-H460,> 100 µM (inactive)
same,GI50,SNB-75,> 100 µM (inactive)
same,GI50,SK-MEL-28,> 100 µM (inactive)
same,GI50,RXF 393,> 100 µM (inactive)
same,GI50,KM-20L2,> 100 µM (inactive)
same,GI50,KM12,> 100 µM (inactive)
same,GI50,Malme-3M,> 100 µM (inactive)
same,GI50,HOP-62,> 100 µM (inactive)
same,GI50,DMS-273,> 100 µM (inactive)
same,GI50,CAKI-1,> 100 µM (inactive)
O=C1C2=C(c3ccccc31)C(c1ccc(Cl)cc1)NC(S)=N2 (stereo not given),GI50,UO-31,14.9 µM (inactive)
same,GI50,A498,79.1 µM (inactive)
same,GI50,SK-OV-3,69.2 µM (inactive)
same,GI50,CCRF-CEM,24.5 µM (inactive)
same,GI50,NCI-H522,20.1 µM (inactive)
same,GI50,NCI-H226,16.9 µM (inactive)
same,GI50,EKVX,36.9 µM (inactive)
same,GI50,UACC-257,41.8 µM (inactive)
same,GI50,SF-295,15.5 µM (inactive)
same,GI50,U-251,17.5 µM (inactive)
same,GI50,HL-60,17.5 µM (inactive)
same,GI50,NCI-H23,17.3 µM (inactive)
same,GI50,DMS-114,22.7 µM (inactive)
same,GI50,HCT-15,18.1 µM
same,GI50,K562,19 µM (inactive)
same,GI50,SF-268,17.4 µM (inactive)
same,GI50,IGROV-1,19 µM (inactive)
same,GI50,OVCAR-3,20.1 µM (inactive)
same,GI50,OVCAR-5,46.7 µM (inactive)
same,GI50,TK-10,22.8 µM (inactive)
same,GI50,DLD-1,22.8 µM (inactive)
same,GI50,SK-MEL-5,33.5 µM (inactive)
same,GI50,COLO 205,25.5 µM (inactive)
same,GI50,786-0,17.9 µM (inactive)
same,GI50,UACC-62,23 µM (inactive)
same,GI50,SK-MEL-2,23.3 µM (inactive)
same,GI50,ACHN,42.7 µM (inactive)
same,GI50,SNB-19,26.3 µM (inactive)
same,GI50,M14,23.3 µM (inactive)
same,GI50,HCT-116,15.1 µM (inactive)
same,GI50,LXFL 529,14.8 µM (inactive)
same,GI50,HOP-92,16 µM (inactive)
same,GI50,M19-MEL,20 µM (inactive)
same,GI50,SW-620,20.5 µM (inactive)
same,GI50,OVCAR-4,15.5 µM (inactive)
same,GI50,SN12C,17.2 µM (inactive)
same,GI50,SF-539,15.7 µM (inactive)
same,GI50,A549,19.4 µM (inactive)
same,GI50,MOLT-4,17.9 µM (inactive)
same,GI50,OVCAR-8,20 µM (inactive)
same,GI50,HT-29,33.8 µM (inactive)
same,GI50,RPMI-8226,20.3 µM (inactive)
same,GI50,NCI-H460,34.8 µM (inactive)
same,GI50,SNB-75,15.9 µM (inactive)
same,GI50,SK-MEL-28,17.1 µM (inactive)
same,GI50,KM-20L2,20.4 µM (inactive)
same,GI50,KM12,23.6 µM (inactive)
same,GI50,Malme-3M,28.2 µM (inactive)
same,GI50,HOP-62,28.2 µM (inactive)
same,GI50,DMS-273,20.3 µM (inactive)
same,GI50,CAKI-1,28.4 µM (inactive)
